Data as given in the NIST ThermoML archive (doi:10.1016/j.jct.2017.08.035).

Experiment: wn = mass fraction of the nth substance listed
Settings: for surface tension liquid-gas: Maximal bubble pressure; for mass density: 100 kPa, Liquid, Vibrating tube method

CCn1cc[n+](CCOC)c1.N#C[N-]C#N [1-ethyl-3-(2-methoxyethyl)imidazolium dicyanamide] + O
Settings | mass density, w2 = 0.00148 [kg/m3] | mass density, w2 = 0.00277 [kg/m3] | mass density, w2 = 0.00434 [kg/m3] | mass density, w2 = 0.0055 [kg/m3] | mass density, w2 = 0.00719 [kg/m3] | surface tension liquid-gas, w2 = 0.00031 [mN/m] | surface tension liquid-gas, w2 = 0.00175 [mN/m] | surface tension liquid-gas, w2 = 0.00317 [mN/m] | surface tension liquid-gas, w2 = 0.00461 [mN/m] | surface tension liquid-gas, w2 = 0.00609 [mN/m]
298.15 K | 1113.35 | 1113.18 | 1112.96 | 1112.77 | 1112.46 | 44.7 | 44.9 | 45.3 | 45.6 | 45.9
303.15 K | 1109.96 | 1109.78 | 1109.57 | 1109.37 | 1109.06 | 44.4 | 44.7 | 45 | 45.3 | 45.6
308.15 K | 1106.58 | 1106.41 | 1106.19 | 1106 | 1105.69 | 44.1 | 44.4 | 44.7 | 45 | 45.3
313.15 K | 1103.23 | 1103.05 | 1102.83 | 1102.64 | 1102.33 | 43.8 | 44.1 | 44.4 | 44.7 | 45
318.15 K | 1099.89 | 1099.72 | 1099.5 | 1099.3 | 1098.99 | 43.5 | 43.8 | 44.1 | 44.4 | 44.7
323.15 K | 1096.58 | 1096.4 | 1096.18 | 1095.98 | 1095.66 | 43.2 | 43.5 | 43.8 | 44.2 | 44.4
328.15 K | 1093.27 | 1093.1 | 1092.88 | 1092.68 | 1092.36 | 43 | 43.3 | 43.6 | 44 | 44.2
333.15 K | 1090 | 1089.82 | 1089.59 | 1089.4 | 1089.08 | 42.7 | 43.1 | 43.4 | 43.7 | 44
338.15 K | 1086.74 | 1086.56 | 1086.33 | 1086.13 | 1085.81 | 42.4 | 42.8 | 43.1 | 43.4 | 43.7

CCn1cc[n+](CCOC)c1.N#C[S-] [1-ethyl-3-(2-methoxyethyl)imidazolium thiocyanate] + O
Settings | mass density, w2 = 0.00246 [kg/m3] | mass density, w2 = 0.00426 [kg/m3] | mass density, w2 = 0.00608 [kg/m3] | mass density, w2 = 0.00832 [kg/m3] | mass density, w2 = 0.00975 [kg/m3] | surface tension liquid-gas, w2 = 0.00382 [mN/m] | surface tension liquid-gas, w2 = 0.00528 [mN/m] | surface tension liquid-gas, w2 = 0.00668 [mN/m] | surface tension liquid-gas, w2 = 0.00811 [mN/m] | surface tension liquid-gas, w2 = 0.00956 [mN/m]
298.15 K | 1121.78 | 1121.54 | 1121.29 | 1120.96 | 1120.82 | 49.3 | 49.4 | 49.5 | 49.6 | 49.7
303.15 K | 1118.56 | 1118.32 | 1118.08 | 1117.75 | 1117.6 | 49 | 49.1 | 49.2 | 49.3 | 49.4
308.15 K | 1115.36 | 1115.12 | 1114.88 | 1114.54 | 1114.4 | 48.7 | 48.8 | 48.9 | 49 | 49.1
313.15 K | 1112.18 | 1111.94 | 1111.7 | 1111.35 | 1111.21 | 48.4 | 48.5 | 48.6 | 48.8 | 48.9
318.15 K | 1109.03 | 1108.77 | 1108.54 | 1108.18 | 1108.03 | 48.1 | 48.2 | 48.3 | 48.5 | 48.6
323.15 K | 1105.88 | 1105.63 | 1105.39 | 1105.02 | 1104.87 | 47.8 | 47.9 | 48 | 48.1 | 48.2
328.15 K | 1102.76 | 1102.5 | 1102.25 | 1101.87 | 1101.72 | 47.6 | 47.7 | 47.8 | 47.9 | 48
333.15 K | 1099.65 | 1099.38 | 1099.13 | 1098.74 | 1098.59 | 47.4 | 47.5 | 47.6 | 47.7 | 47.8
338.15 K | 1096.55 | 1096.28 | 1096.02 | 1095.62 | 1095.47 | 47.1 | 47.2 | 47.3 | 47.5 | 47.6
